Here are results for 2 compounds from publication PMC9200625, “Identification and Functional Characterization of Peptides With Antimicrobial Activity From the Syphilis Spirochete, Treponema pallidum” (Frontiers in Microbiology, 2022).

Molecules are shown by their SMILES. Read-outs that look alike come from different tables or passages of the source. Bridge positions count the residues as written; N and C are the ends. Peptide text beside a SMILES is read from it.

One test relates to E. coli ATCC 9723H. In kind it is cell-based. The method, then:
(§1) Bacterial strains used in this study were: E. coli ATCC 9723H, Pseudomonas aeruginosa ATCC 10148, Staphylococcus aureus ATCC 6538P (penicillin resistant), Streptococcus pyogenes (hospital isolate, strain unknown), Mycobacterium smegmatis MC^2155, N. gonorrhoeae ATCC 700825 (streptomycin resistant), and Salmonella enterica subsp. enterica serovar Typhimurium SL1344 (streptomycin resistant). E. coli, P. aeruginosa, S. aureus, M. smegmatis, and S. enterica were cultured aerobically at 37°C in Mueller Hinton broth (MHB) (Sigma-Aldrich, MO, United States) and on nonselective Mueller Hinton agar (MHA) plates. S. pyogenes was cultured in 5% carbon dioxide at 37°C in MHB supplemented with 5% lysed horse blood (Quad Five, MT, United States) (MHB + 5% HB) and on nonselective MHA plates supplemented with 5% defibrinated sheep blood (Quad Five, MT, United States) (MHA + 5% SB). N. gonorrhoeae was cultured in 5% carbon dioxide at 37°C in gonococcal (GC) chocolate broth medium and on nonselective GC agar plates [GC medium base (BD Difco, MD, United States) supplemented with 1% BBL™ hemoglobin (BD Biosciences, MD, United States) and 1% IsoVitaleX (BD Biosciences, MD, United States)]. Prior to antimicrobial susceptibility assays (as described below), N. gonorrhoeae cultures were subcultured on nonselective GC agar plates (as described above), to ensure bacterial viability. All bacterial stocks were stored in 20% glycerol at –80°C.
(§2) Bacterial suspensions were prepared by transferring bacterial colonies into MHB and resuspending using a vortex mixer to ensure complete suspension of any bacterial aggregates. Turbidity of the colony suspensions was adjusted spectrophotometrically to the required optical densities to achieve a turbidity equivalent to that of a 0.5 McFarland standard (1–2 × 10^8 CFU/mL) followed by dilution in MHB to achieve the standardized microbial inoculum of approximately 5 × 10^5 CFU/mL. Total viable counts (TVC) were routinely performed on all inoculum suspensions to ensure correct bacterial cell densities. The standardized bacterial suspensions were then incubated with two-fold serial dilutions of each peptide (dissolved in 11 μL of ultrapure sterile water; final peptide concentration range of 256 μg/mL–0.5 μg/mL) in Greiner polypropylene round bottom 96-well microtiter plates (Sigma-Aldrich, MO, United States). Each peptide was tested once per experiment, with a range of 3–9 independent experiments performed per peptide. Negative growth/sterility control wells contained bacterial growth media (100 μL) and the peptide solvent (11 μL of ultrapure sterile water). Positive growth control wells contained the standardized number of bacterial cells (100 μL of ∼ 5.0 × 10^5 CFU/mL) and peptide solvent (11 μL of ultrapure sterile water). Plates were incubated at 37°C for 16–24 h and MICs were determined using the unaided eye to identify the lowest concentration of AMP that inhibited visible growth of the tested bacterial species. If the sterility control well was turbid, the test was not considered valid. MBCs were determined by plating the entire content of the wells containing the peptide/bacteria mixture representing the MIC and the entire contents of the preceding wells containing two-fold and four-fold more concentrated AMP dilutions onto nonselective agar plates.

In the next test the test system is P. aeruginosa ATCC 10148. In kind it is cell-based, Pseudomonas aeruginosa. The method, then:
as §1, §2

In another test the test system is S. enterica SL1344. In kind it is cell-based, Salmonella enterica subsp. enterica serovar Typhimurium. The method, then: as §1
(§3) Bacterial suspensions were prepared by transferring bacterial colonies into MHB and resuspending using a vortex mixer to ensure complete suspension of any bacterial aggregates. Turbidity of the colony suspensions was adjusted spectrophotometrically to the required optical densities to achieve a turbidity equivalent to that of a 0.5 McFarland standard (1–2 × 10^8 CFU/mL) followed by dilution in MHB to achieve the standardized microbial inoculum of approximately 5 × 10^5 CFU/mL. Total viable counts (TVC) were routinely performed on all inoculum suspensions to ensure correct bacterial cell densities. […] Plates were incubated at 37°C for 16–24 h and MICs were determined using the unaided eye to identify the lowest concentration of AMP that inhibited visible growth of the tested bacterial species. […] MBCs were determined by plating the entire content of the wells containing the peptide/bacteria mixture representing the MIC and the entire contents of the preceding wells containing two-fold and four-fold more concentrated AMP dilutions onto nonselective agar plates.

A further test has as its system S. aureus ATCC 6538P. The class given is cell-based, Staphylococcus aureus. The method, then:
as §1, §3

Test [1] concerns S. pyogenes Unknown strain; Clinical Isolate. The class given is cell-based, Streptococcus pyogenes. Here is the method: as §1, §2
The test system of another test is M. smegmatis MC^2155. The class given is cell-based, Mycobacterium smegmatis. Here is the method:
as §1, §2

For test [2], the system named is N. gonorrhoeae ATCC 700825. The class given is cell-based, Neisseria gonorrhoeae. Particulars: 3-h incubation 37°C 5% CO2, TVCs versus positive growth control, all of three to six independent experiments. Here is the method: as §1
The potential antimicrobial activity of the T. pallidum peptides against N. gonorrhoeae was determined using a modified agar dilution method. In this assay, N. gonorrhoeae colonies from GC chocolate agar plates were resuspended in MHB and the turbidity of the suspension was adjusted, as described above, to achieve the standardized microbial inoculum of approximately 5 × 10^5 CFU/mL. A two-fold serial dilution of the peptides (11 μL in sterile ultrapure water) was then prepared in wells 1–10 of a 96-well sterile polypropylene plate to obtain a dilution series corresponding to 10 times the required testing concentrations (2,560, 1,280, 640, 320, 160, 80, 40, 20, 10, 5 μg/mL). The bacterial suspension (100 μL) was dispensed into the wells containing the peptides. A negative growth/sterility control (well 12) contained bacterial growth media (100 μL) and the peptide solvent (11 μL of ultrapure sterile water). A positive growth control (well 11) contained the standardized number of bacterial cells (100 μL of ∼ 5.0 × 10^5 CFU/mL) and peptide solvent (11 μL of ultrapure sterile water). The 96-well plate was then incubated at 37°C in an atmosphere of 5% CO2 for 3 h to allow for peptide binding and antimicrobial activity. After the incubation period, an aliquot (20 μL) from wells 1–12 was removed and spotted onto the surface of a GC chocolate agar plate. N. gonorrhoeae spotted plates and TVC plates were incubated at 37°C in an atmosphere of 5% CO2 for 18–24 h. […] To determine the bactericidal activity of peptides, total viable counts (TVCs) were also prepared on GC chocolate agar plates for the 3 h-incubated peptide/bacteria mixtures. These counts were compared with TVCs from the corresponding positive growth wells to give the percentage of bacteria killed by each of the peptides following the 3-h incubation.

The mark [3] stands for this setting: broth microdilution in MHB, ~5 × 10^5 CFU/mL, peptide 256–0.5 μg/mL two-fold dilutions, 37°C 16–24 h, visible growth by unaided eye, range over 3–9 independent experiments.
The mark [4] stands for this setting: wells at MIC, two-fold and four-fold higher plated on nonselective agar, 24 h 37°C, range over 3–9 independent experiments.

For the compound `CC[C@H](C)[C@H](NC(=O)[C@H](CCCCN)NC(=O)[C@H](CCC(=O)O)NC(=O)[C@H](CCCCN)NC(=O)[C@H](CO)NC(=O)[C@H](CCCCN)NC(=O)[C@H](CCCNC(=N)N)NC(=O)[C@H](Cc1ccccc1)NC(=O)[C@H](Cc1ccccc1)NC(=O)[C@H](CC(=O)O)NC(=O)CNC(=O)[C@H](CC(C)C)NC(=O)[C@@H](N)CC(C)C)C(=O)NCC(=O)N[C@@H](CCCCN)C(=O)N[C@@H](CCC(=O)O)C(=O)N[C@@H](Cc1ccccc1)C(=O)N[C@@H](CCCCN)C(=O)N[C@@H](CCCNC(=N)N)C(=O)N[C@H](C(=O)N[C@H](C(=O)N[C@@H](CCC(N)=O)C(=O)N[C@@H](CCCNC(=N)N)C(=O)N[C@H](C(=O)N[C@@H](CCCCN)C(=O)N[C@@H](CC(=O)O)C(=O)N[C@@H](Cc1ccccc1)C(=O)N[C@@H](CC(C)C)C(=O)N[C@@H](CCCNC(=N)N)C(=O)N[C@@H](CC(N)=O)C(=O)N[C@@H](CC(C)C)C(=O)N[C@H](C(=O)N1CCC[C@H]1C(=O)N[C@@H](CCCNC(=N)N)C(=O)N[C@H](C(=O)N[C@@H](CCC(=O)O)C(=O)N[C@@H](CO)C(=O)O)[C@@H](C)O)C(C)C)[C@@H](C)CC)C(C)C)[C@@H](C)CC` [LL-37], the MIC fell in the range of 1.8 to 7.1 µM in the test with E. coli ATCC 9723H (setting [3]); 3.6 to 14.2 µM in the test on P. aeruginosa ATCC 10148 (setting [3]); 1.8 to 28.5 µM in the test with S. enterica SL1344 (setting [3]); 7.1 to 28.5 µM with S. aureus ATCC 6538P (penicillin resistant strain, broth microdilution in MHB, ~5 × 10^5 CFU/mL, peptide 256–0.5 μg/mL two-fold dilutions, 37°C 16–24 h, visible growth by unaided eye, range over 3–9 independent experiments); 28.5 to 57.0 µM in test [1] (broth microdilution, cultured in MHB + 5% lysed horse blood, 5% carbon dioxide, ~5 × 10^5 CFU/mL, peptide 256–0.5 μg/mL, 37°C 16–24 h, visible growth, range over 3–9 independent experiments); 0.45 to 1.8 µM against M. smegmatis MC^2155 (setting [3]). Besides, the MBC in the test on E. coli ATCC 9723H (setting [4]) fell in the range of 1.8 to 7.1 µM; with P. aeruginosa ATCC 10148 (setting [4]), 3.6 to 14.2 µM; with S. enterica SL1344 (setting [4]), 1.8 to 28.5 µM; in the test on S. aureus ATCC 6538P (setting [4]), 7.1 to 57.0 µM; in test [1] (setting [4]) it was 28.5 to 57.0 µM; against M. smegmatis MC^2155 (setting [4]) it was 0.45 to 1.8 µM. The “N. gonorrhoeae killing (%)” value in test [2] (peptide 32 μg/mL), in test [2] (peptide 64 μg/mL), in test [2] (peptide 128 μg/mL) and in test [2] (peptide 256 μg/mL) was 100% throughout.

Turning to `CC[C@H](C)[C@H](NC(=O)[C@@H](NC(=O)[C@@H]1CCCN1C(=O)[C@H](Cc1ccccc1)NC(=O)[C@@H](N)Cc1ccccc1)[C@@H](C)CC)C(=O)N[C@@H](C)C(=O)N[C@@H](CCCNC(=N)N)C(=O)N[C@@H](CC(C)C)C(=O)N[C@@H](C)C(=O)N[C@@H](C)C(=O)N[C@@H](CCCCN)C(=O)N[C@H](C(=O)N[C@H](C(=O)N1CCC[C@H]1C(=O)N[C@@H](CO)C(=O)N[C@@H](CC(C)C)C(=O)N[C@H](C(=O)N[C@H]1CSSC[C@@H](C(=O)O)NC(=O)[C@H](CCCCN)NC(=O)[C@H](CCCCN)NC(=O)[C@H]([C@@H](C)O)NC(=O)[C@H](C(C)C)NC(=O)[C@H](C)NC1=O)C(C)C)[C@@H](C)CC)C(C)C` [RaCa-2] (H-FFPIIARLAAKVIPSLVCAVTKKC-OH; disulfide 18-24; N-terminus and C-terminus assumed), the MIC against E. coli ATCC 9723H (ATCC 9723) was in the range of 3.1 to 12.4 µM; against P. aeruginosa ATCC 10148 (ATCC 10148), 49.4 to 98.9 µM; with S. enterica SL1344 (SL1344), 6.2 to 49.4 µM; in the test on S. aureus ATCC 6538P (ATCC 6538), 3.1 to 6.2 µM; in the test on M. smegmatis MC^2155 (MC^2155), 1.5 to 3.1 µM. The minimal bactericidal concentration (MBC) in the test on E. coli ATCC 9723H (ATCC 9723, 24 h) is 6.2 to 24.7 µM; in the test with P. aeruginosa ATCC 10148 (ATCC 10148, 24 h), at least 98.9 µM; against S. enterica SL1344 (SL1344, 24 h), 12.4 to 98.9 µM; against S. aureus ATCC 6538P (ATCC 6538, 24 h), 3.1 to 12.4 µM; in test [1] (Unknown strain, Clinical Isolate, 24 h), 6.2 to 49.4 µM; against M. smegmatis MC^2155 (MC^2155, 24 h) it was 1.5 to 6.2 µM.
